In article PMC3766633 (Biomaterials, 2013):
“Also recorded” adds a separate entry of the source.

Tests used:
male Wistar rats [1] = assay: Subcutaneous injection, hypoglycemic effect; assay type: in vivo, rat; conditions: 1 IU/kg
male Wistar rats [2] = assay: In situ ileal loop absorption experiment, hypoglycemic effect; conditions: 50 IU/kg
[3] = Precipitation / aggregation on mixing with LMWP during coupling; assay type: physicochemical; conditions: mixing with LMWP or LMWP-SH during the coupling process, observation
dogs = conditions: dog, in vivo; cited from earlier work
[4] = cell culture and animal studies; cited from earlier work

insulin
time of return of BGL to the basal level (~100%) (male Wistar rats [1]; s.c.): 6 h | BGLmin (minimum blood glucose level) (male Wistar rats [1]; sc., male Wistar rats, % of initial value, N=6): 65.75% | Tmin (time to reach BGLmin) (male Wistar rats [1]; sc., male Wistar rats, N=6): 1 h | AAC0→10h (area above the curve) (male Wistar rats [1]; sc., male Wistar rats, trapezoidal method, N=6): 10547 %min | PA0→10h (relative pharmacological availability) (male Wistar rats [1]; sc., reference route, N=6): 100.00% | hypoglycemic effect (decrease in BGL compared with PBS negative control) (male Wistar rats [2]; male Wistar rats): no statistically significant decrease; also recorded: virtually no hypoglycemic effects | AAC0→10h (area above the curve) (male Wistar rats [2]; male Wistar rats, trapezoidal method, N=6): 2751 %min | PA0→10h (relative pharmacological availability) (male Wistar rats [2]; relative to s.c. insulin 1 IU/kg, male Wistar rats, N=6): 0.52% | appearance on mixing / reaction with LMWP (precipitation of insoluble complexes) [3]: significant precipitation

VSRRRRRRGGRRRR [LMWP, Low Molecular Weight Protamine]
complement activation (dogs): only minor | hypotensive responses (dogs): non-detectable | cell internalization potency relative to TAT [4]: equivalent

Insulin-Polyethylene Glycol-Low Molecular Weight Protamine Conjugate [Insulin-PEG-LMWP]
transporting efficiency, times higher than that of native insulin, basolateral-to-apical flux (Caco-2 cell monolayer; Caco-2): 4.09 times | Peff (permeability coefficient), apical-to-basolateral (Caco-2 cell monolayer; Caco-2, pH 7.4): 5.33±0.03 ×10^-6 cm/s | Peff (permeability coefficient), basolateral-to-apical (Caco-2 cell monolayer; Caco-2, pH 7.4): 4.95±0.15 ×10^-6 cm/s | BGL level maintained till the end of the study (10 h) (male Wistar rats [1]; s.c.): around 70% | reduction of BGL two hours following subcutaneous injection (male Wistar rats [1]; s.c., 2 h): about 30% | bioactivity of insulin after conjugation with LMWP (male Wistar rats [1]; s.c., compared with s.c. insulin): not to be impaired | drop of BGL soon after administration (male Wistar rats [2]): 70% | Tmin (time to reach BGLmin) (male Wistar rats [2]; male Wistar rats, N=6): 6 h | BGL level remaining after the minimum (male Wistar rats [2]; over a period of 10 hours, % of initial value): 30–45%

Insulin-Polyethylene Glycol-Maleimide [Insulin-PEG-MAL]
appearance on mixing / reaction with LMWP (precipitation of insoluble complexes) [3]: transparent reaction mixture
